Laboratory results taken from patent publication US8088916B2, “Hyaluronic acid-methotrexate conjugate” (priority 2004, dated 2012).

Legend:
[1] = Measurement of viscoelasticity; type: physicochemical; details: sterile solutions, 37° C., cone 4 cm, CSL500 stress-controlled rheometer; FIG. 1
Experimental: The viscoelasticities of the sterile solutions of hyaluronic acids (molecular weights: 1,900,000 and 800,000) and the conjugates of Examples 2-1, 2-8, 2-18, 2-27, and 2-29 were measured at 37° C. using a cone 4 cm in diameter by a CSL500 stress-controlled rheometer (from Carri-Med Ltd.).

[2] = test system: mBSA-induced monoarthritis model; experiment: Suppressive effect on knee joint swelling in mBSA-induced monoarthritis model; type: in vivo, rat; details: for AUC (% of control) (mean ± SEM): AUC of knee joint swelling to two weeks after induction, control = HA-treated group, 50 μL into right knee joint 7 and 1 day before and 7 days after induction
Experimental: An in vivo synovitis-suppressing effect of each HA-MTX conjugate of the invention was assessed on the basis of a suppressive effect on knee joint swelling in a methylated bovine serum albumin (mBSA)-induced monoarthritis model of rat. Since the mBSA-induced arthritis model employed in this experimental example is widely used as an antigen-induced arthritis model, and known to develop synovitis (Sven E. Andersson, et al., The Journal of Rheumatology (1998) 25: 9, 1772-7), the in vivo knee joint swelling-suppressing effect observed in this model conceivably represents a synovitis-suppressing effect. The compounds of the invention suppressing synovitis in vivo are useful as therapeutic drugs for joint diseases accompanied by synovitis (RA, OA, and the like).
The animal used was the LEW/Crj rat (6-week old male, from Charles River Laboratories Japan, Inc.). Into the flank of the rat was subcutaneously injected 0.5 mL of an emulsion prepared from a 2 mg/mL mBSA (Calbiochem) aqueous solution and an equal amount of Freund's complete adjuvant (Difco) 21 and 14 days before inducing arthritis. The arthritis was induced by administering 50 μL of a 2 mg/mL mBSA aqueous solution into the right knee joint. The left knee joint was untreated, and served as control in each individual. Each test substance (sterile aqueous solution) and the control drug hyaluronic acid were each administered into the right knee joint in an amount of 50 μL 7 and 1 day before and 7 days after inducing arthritis.
The determination of knee joint swelling involved measuring the widths of both knee joints with calipers to define the left/right difference (right knee diameter-left knee diameter) as a knee joint swelling. The width of each knee joint was measured at a frequency of twice a week from immediately before inducing arthritis to two weeks later to calculate AUC (an abbreviation for Area Under the Curve; here, it means an area under a curve with time for the joint swelling) from the transition thereof with time. At each measurement, the mean and standard deviation of AUC were calculated to perform an unpaired t-test between each test substance-treated group and the HA-treated group, and significant difference was judged to be present if the probability level is less than 5%. Statistical analysis used SAS version 6.12 (SAS Institute Japan). In addition, the AUC of each test substance was calculated, using that in the HA-treated group as a control, as a relative value (% of control) therefor.
To verify the usefulness of the HA-MTX conjugate of the invention, the suppressive effect on joint swelling was compared, in accordance with the method of Example 3, among: 1) a group treated with the HA-MTX conjugate (sterile aqueous solution) prepared in Example 2-2; 2) a group treated with a solution containing MTX of an amount equal to that of MTX contained in the HA-MTX conjugate; and 3) a group of treated with a mixture (HA+MTX) of MTX and hyaluronic acid (HA) of amounts equal to those contained in the conjugate. The transition of knee joint swelling with time in this test is shown in FIG. 2, and the AUC thereof in FIG. 3.

[3] = test system: human synovial cells (HFLS); experiment: Anti-proliferative effect on synovial cells stimulated by TNF-α ([3H]-deoxyuridine uptake); type: cell-based; details: TNF-α 10 ng/mL, 5 days culture, concentration calculated as MTX from conjugation rate
Description: An effect of the HA-MTX conjugates of the invention on cell proliferation induced by TNF-α stimulation was examined using human synovial cells (HFLS). The main lesion in rheumatoid arthritis (RA) occurs in the synovial tissue, and, as one of the features, it is known that synovial cells abnormally proliferate to form a granulation tissue (pannus) and thereby destroy the cartilage and bone of the joint. Secondary synovitis is also observed in osteoarthritis (OA). […] Thus, a compound inhibiting the proliferation of synovial cells stimulated by the inflammatory cytokine TNF-α suppresses the progression of the pathologic conditions of RA and OA and becomes a therapeutic drug therefor. The sterile aqueous solutions of the HA-MTX conjugates in Example 2 (Table 2) were used as test substances. HFLS (CA40405, Lot Nos. 1413 and 1493) was purchased from Cell Applications Ins. for use. HFLS was seeded at 5,000 cells/well on a 96-well plate (Falcon) and cultured for 3 hours in Iscove's modified Dulbecco's medium (IMDM) containing 5% FBS and 1× Antibiotic-Antimycotic (GIBOC). After cellular attachment, TNF-α (final concentration: 10 ng/mL) and each HA-MTX conjugate at each concentration was added, followed by cultivation for 5 days. Two days before the end of culture, was added 37 kBq/well of [^3H]-deoxyuridine in the cells (MORAVEK), followed by determining the uptake quantity (radioactivity) of [^3H]-deoxyuridine using a scintillation counter. Cells were recovered by unsticking them with 0.05% trypsin-0.2% EDTA. Radioactivity determined in each of the experiments with each test substance was calculated as a relative value (% of control), using, as control, radioactivity in the group of cells cultured without adding any test substance. […] GraphPad Prism 3.02).

[4] = test system: collagenase-induced arthritis (OA) model; experiment: Suppressive effect on knee joint swelling in collagenase-induced arthritis (OA) model; type: in vivo, rat; details: AUC of knee joint swelling to 20 days after induction; 50 μL into right knee joint once a week from 7 and 1 day before induction; compared with HA-treated group
Experimental: An in vivo synovitis-suppressing effect of the HA-MTX conjugate was evaluated in collagenase-induced OA model rats. The collagenase-induced OA model is a model in which inflammation has been induced within the knee joint by injecting collagenase into the knee joint to directly digest collagen in cartilage tissue. […] Therefore, the compound of the invention suppressing inflammation in the model and inhibiting cartilage degeneration therein will be useful as a therapeutic drug for OA.
The animal used was the SD/Crj rat (6-week old male, from Charles River Laboratories Japan, Inc.). Into the articular cavity of the right knee was administered 50 μL of 1.5% collagenase (Sigma) solution to induce arthritis. The left knee joint was untreated to use as a control in each individual. Each test substance was administered into the right knee joint in an amount of 50 μL once a week from 7 and 1 day before inducing arthritis.
The determination of knee joint swelling involved measuring the widths of both knee joints with calipers to determine the left/right difference (right knee diameter-left knee diameter), which was defined as a knee joint swelling. The width of each knee joint was measured on the order of twice a week from immediately before inducing arthritis to 20 days later to calculate AUC from a graph showing the transition thereof with time. At each measurement, the mean and standard error of the mean of AUC were calculated to perform an unpaired t-test between each test substance-treated group and the HA-treated group, and significant difference was judged to be present if the probability level is less than 5%.

[5] = test system: arthritis model in which pathosis occurs in the knee joint; experiment: Intra-articular administration to an arthritis model in which pathosis occurs in the knee joint; type: in vivo; details: intra-articularly administered; summary statement

For “MTX-α-Glu-NHC10H20O3NH-HA [Example 2-29]”, the viscoelasticity [1] was “viscoelasticities intermediate between those of the hyaluronic acids having molecular weights of 800,000 and 1,900,000”, the “AUC (% of control) (mean ± SEM)” value [2] was 68.8 ± 6.7 % of control and the IC50 [3] was 8.4 µM.

With MTX-α-PhePhe-NHC2H4NH-HA [Example 2-2] the “AUC (% of control) (mean ± SEM)” value [2] was 45.0 ± 6.8 % of control, the “suppressive effect on joint swelling / alleviating effect on synovitis” value ([2]; Experimental Example 4: conjugate vs equal amount of MTX vs mixture HA+MTX, FIGS. 2 and 3) was “markedly strong suppressive effect on the joint swelling in the arthritis model compared to that of MTX alone or the mixture of MTX and HA” and the “AUC (% of control) (mean ± SEM)” value [4] was 48.9 ± 3.7 % of control. The IC50 [3] was 0.14 µM.

In the case of “MTX-α-PhePhe-NHC10H2OO3NH-HA [Example 2-8]”, the viscoelasticity [1] is reported as “viscoelasticities intermediate between those of the hyaluronic acids having molecular weights of 800,000 and 1,900,000”, the “AUC (% of control) (mean ± SEM)” value [2] is reported as 54.9 ± 7.2 % of control and the “AUC (% of control) (mean ± SEM)” value [4] is reported as 54.8 ± 5.9 % of control. It also gave an IC50 [3] of 0.84 µM.

In the case of “MTX-α-Ile-NHC10H20O3NH-HA [Example 2-27]”, the viscoelasticity [1] is reported as “viscoelasticities intermediate between those of the hyaluronic acids having molecular weights of 800,000 and 1,900,000”, the “AUC (% of control) (mean ± SEM)” value [2] is reported as 75.1 ± 6.8 % of control and the “AUC (% of control) (mean ± SEM)” value [4] is reported as 82.6 ± 5.2 % of control. It also gave an IC50 [3] of 3.1 µM.

In the case of “MTX-α-PheGly-NHC10H20O3NH-HA [Example 2-18]”, the viscoelasticity [1] is reported as “viscoelasticities intermediate between those of the hyaluronic acids having molecular weights of 800,000 and 1,900,000”, the “AUC (% of control) (mean ± SEM)” value [2] is reported as 61.5 ± 4.7 % of control and the “AUC (% of control) (mean ± SEM)” value [4] is reported as 65.9 ± 3.5 % of control. The IC50 [3] was 9.2 µM.

With hyaluronic acid [HA] the “alleviating effect on synovitis” value [5] was “not seen with HA”.

For “MTX-α/γ-GlyPheLeuGly-NHC10H20O3NH-HA (methotrexate-GFLG-{NHC10H20O3NH-hyaluronic acid}; also: methotrexate linked via α- or γ-carboxyl) [Example 2-48]”, the “AUC (% of control) (mean ± SEM)” value [2] was 58.8 ± 11.6 % of control and the IC50 [3] was 1.3 µM.

With “MTX-α-PhePhe-NHC5H10NH-HA [Example 2-13]” the “AUC (% of control) (mean ± SEM)” value [2] was 60.5 ± 9.9 % of control and the IC50 [3] was 1.5 µM.

With MTX-α-PhePhe-NHC2H4NH-HA [Example 2-1] the viscoelasticity [1] was “viscoelasticities intermediate between those of the hyaluronic acids having molecular weights of 800,000 and 1,900,000”, the “AUC (% of control) (mean ± SEM)” value [2] was 48.5 ± 5.3 % of control and the “AUC (% of control) (mean ± SEM)” value [4] was 45.7 ± 3.9 % of control. For the same substance, the IC50 [3] was 0.36 µM.

With “MTX-α-PheGly-NHC8H16O2NH-HA [Example 2-20]” the “AUC (% of control) (mean ± SEM)” value [2] was 65.3 ± 9.6 % of control and the IC50 [3] was 18 µM.

In the case of MTX-α-PhePhe-Lys-HA [Example 2-14], the “AUC (% of control) (mean ± SEM)” value [2] is reported as 54.3 ± 7.4 % of control and the IC50 [3] is reported as 15 µM.
